From patent US10494363B2, “Non-steroidal glucocorticoid receptor modulators for local drug delivery” (LEO PHARMA A/S, priority 2015, dated 2019) come the findings set out here.

Bounds are passed on as bounds.

Series [1] in a line: Human liver microsomes (HLM) assay. To be noted: hepatic extraction ratio; 0.5 μM compound, 0.5 mg/mL microsomes, NADPH, 37° C. It is filed as in vitro ADME. The protocol: Incubations of test compounds in DMSO, diluted with phosphate buffer, pH 7.4, at 0.5 μM were carried out with human liver microsomes (0.5 mg/mL). The percentage of organic solvent in the incubations was 1%. The human liver microsomal suspension in phosphate buffer was mixed with NADPH (1 mM) and preheated to 37° C. before test compound was added. Aliquots were taken at 0, 5, 10, 20 and 30 minutes, and reactions were terminated by addition of methanol containing analytical internal standard (IS).
The results were expressed as apparent clearance (Clapp) (mL/min/kg) and hepatic extraction ratio (Eh) (%) calculated from the rate constant (k) (min^−1) of test compound depletion.
In general terms: Microsomes from liver hold many membrane-bound enzymes, among them those of drug oxidation.

The target of series [2] is T1, glucocorticoid receptor (GR), recombinant full-length receptor protein (Homo sapiens, UniProt P04150).
T1 construct: 4 nM recombinant, full-length receptor protein was incubated with increasing concentrations of GR ligand; purchased Life Technologies A-15897
T1 sequence (P04150 1-777): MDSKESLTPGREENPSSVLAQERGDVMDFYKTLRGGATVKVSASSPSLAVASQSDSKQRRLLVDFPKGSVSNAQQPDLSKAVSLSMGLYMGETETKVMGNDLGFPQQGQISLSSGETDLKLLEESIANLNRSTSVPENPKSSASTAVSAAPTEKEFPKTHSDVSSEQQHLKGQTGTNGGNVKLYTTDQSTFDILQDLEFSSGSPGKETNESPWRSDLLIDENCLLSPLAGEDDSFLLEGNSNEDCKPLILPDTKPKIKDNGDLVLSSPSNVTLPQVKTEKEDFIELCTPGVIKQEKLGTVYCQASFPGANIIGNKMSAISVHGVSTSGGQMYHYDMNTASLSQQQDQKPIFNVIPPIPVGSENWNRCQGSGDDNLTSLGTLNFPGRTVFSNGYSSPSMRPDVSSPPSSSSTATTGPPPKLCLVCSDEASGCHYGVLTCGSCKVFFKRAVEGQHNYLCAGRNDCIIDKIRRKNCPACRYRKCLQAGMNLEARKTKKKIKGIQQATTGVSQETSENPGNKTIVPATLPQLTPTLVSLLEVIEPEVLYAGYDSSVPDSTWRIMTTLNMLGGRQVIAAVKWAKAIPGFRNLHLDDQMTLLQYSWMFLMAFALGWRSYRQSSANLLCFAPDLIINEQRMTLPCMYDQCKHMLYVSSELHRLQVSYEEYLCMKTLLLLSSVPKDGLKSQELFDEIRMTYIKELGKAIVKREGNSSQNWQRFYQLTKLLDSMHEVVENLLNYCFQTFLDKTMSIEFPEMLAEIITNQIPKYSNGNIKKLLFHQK
Put plainly: Glucocorticoid receptor binding assay (fluorescence polarization kit). The conditions noted are these: 4 nM receptor, 2.5 nM Fluormone GS1 tracer, 2h room temperature, read-out: GR binding ABS IC50. The protocol: Test compounds were diluted in DMSO over seven orders of magnitude, further diluted in assay buffer and distributed into 384-well plates. The sensitivity limit of this assay was 2-4 nM.
Data were processed by sigmoidal curve fitting.
Absolute (Abs) IC50 and Emax were determined from the curve fits.
(Fluorescence polarisation rises when a labelled molecule tumbles more slowly, as on binding a larger partner.)

Series [3] concerns TNF alpha release from human PBMCs. Description: Inhibition of TNF alpha release from human PBMCs. To be noted: PBMC, LPS 1 μg/ml, 18 hours, AlphaLISA. It is filed as cell-based. The protocol: PBMC were isolated from fresh buffy coats by density centrifugation using lymphoprep (Medinor AB, cat no 1019818) tubes. Isolated PBMCs were washed in assay medium (RPMI1640 with 25 mM HEPES, 1% pen/strep, 200 mM L glutamine and 10% Foetal calf serum). Surplus PBMCs were frozen in medium containing extra 10% foetal calf serum and 5% DMSO. On the assay day, fresh cells or cryopreserved cells after thawing were washed in serum free medium (RPMI1640 with 25 mM HEPES, 1% pen/strep, 200 mM L glutamine and 0.5% human serum albumin) and counted, in order to determine the fraction of living cells (generally >95%).
Test compounds were diluted in DMSO over seven orders of magnitude, further diluted in serum-free medium and distributed into wells of 384 well tissue culture plates. LPS was added to a final concentration of 1 μg/ml to the cells. Immediately thereafter titrated test compounds were added and incubated for 18 hours at 37° C.
The level of TNF-a in the culture supernatant was quantitated by AlphaLISA (Perkin Elmer). 2-(3,5-dichloro-4-pyridinyl)-1-(7-methoxyspiro[1,3-benzodioxole-2,1′-cyclopentan]-4-yl)-ethanone (CAS 185406-34-2) at 100×IC50 was used to define the assay window.
Data were processed by sigmoidal curve fitting. EC50 and Emax were determined from the curve fits.
(In general: Alpha assays give light when donor and acceptor beads are brought close together.)

What is called IC50 is the concentration needed to halve the response being measured. As a reminder, the EC50 is the concentration needed to bring the measured effect to its halfway point. Lower therefore signals higher potency in that assay. Take `C[C@H](NC(=O)c1cscn1)[C@H](Oc1ccc(C(=O)N[C@H]2CCCN(C(=O)[C@H]3COC(=O)C3)C2)nc1)c1ccc(C2CC2)cc1` [Compound 7, N-[(1S,2R)-2-(4-cyclopropylphenyl)-1-methyl-2-[[6-[[(3S)-1-[(3R)-5-oxotetrahydrofuran-3-carbonyl]-3-piperidyl]carbamoyl]-3-pyridyl]oxy]ethyl]thiazole-4-carboxamide]: the “HLM assay Eh (%)” value in series [1] is listed as “* (extraction ratio (Eh)>90%)”. Also, in series [2], the IC50 is less than 0.1 µM. Also, the EC50 in series [3] was less than 0.1 µM.
For the compound `Cc1cc(C(=O)N[C@@H](C)[C@H](Oc2ccc(C(=O)N[C@H]3CCCN(C(=O)[C@H]4COC(=O)C4)C3)nc2)c2ccc(C3CC3)cc2)on1` [Compound 8, N-[(1S,2R)-2-(4-cyclopropylphenyl)-1-methyl-2-[[6-[[(3S)-1-[(3R)-5-oxotetrahydrofuran-3-carbonyl]-3-piperidyl]carbamoyl]-3-pyridyl]oxy]ethyl]-3-methylisoxazole-5-carboxamide], the “HLM assay Eh (%)” value in series [1] is reported as “* (extraction ratio (Eh)>90%)”. Further, the half-inhibitory concentration (IC50) in series [2] was less than 0.1 µM. For the same compound, the EC50 in series [3] is less than 0.1 µM.
`C[C@H](NC(=O)c1cnco1)[C@H](Oc1ccc(C(=O)N[C@H]2CCCN(C(=O)[C@H]3COC(=O)C3)C2)nc1)c1ccc(C2CC2)cc1` [Compound 9, N-[(1S,2R)-2-(4-cyclopropylphenyl)-1-methyl-2-[[6-[[(3S)-1-[(3R)-5-oxotetrahydrofuran-3-carbonyl]-3-piperidyl]carbamoyl]-3-pyridyl]oxy]ethyl]oxazole-5-carboxamide]: the “HLM assay Eh (%)” value in series [1] was “* (extraction ratio (Eh)>90%)”. Further, in series [2], the IC50 lay within 0.1 to 0.3 µM. Further, the EC50 in series [3] is less than 0.1 µM.
For the compound `CC[C@H](O)C(=O)N[C@@H](C)[C@H](Oc1ccc(C(=O)N[C@H]2CCCN(C(=O)[C@H]3COC(=O)C3)C2)nc1)c1ccc(C2CC2)cc1` [Compound 10, 5-[(1R,2S)-1-(4-cyclopropylphenyl)-2-[[(2S)-2-hydroxybutanoyl]amino]propoxy]-N-[(3S)-1-[(3R)-5-oxotetrahydrofuran-3-carbonyl]-3-piperidyl]pyridine-2-carboxamide], the “HLM assay Eh (%)” value in series [1] is given as “* (extraction ratio (Eh)>90%)”. Also, in series [2], the IC50 fell in the range of 0.1 to 0.3 µM. In series [3], this compound had an EC50 of less than 0.1 µM.
`C[C@H](NC(=O)[C@@H](C)O)[C@H](Oc1ccc(C(=O)N[C@H]2CCCN(C(=O)[C@H]3COC(=O)C3)C2)nc1)c1ccc(C2CC2)cc1` [Compound 11, 5-[(1R,2S)-1-(4-cyclopropylphenyl)-2-[[(2R)-2-hydroxypropanoyl]amino]propoxy]-N-[(3S)-1-[(3R)-5-oxotetrahydrofuran-3-carbonyl]-3-piperidyl]pyridine-2-carboxamide]: the “HLM assay Eh (%)” value in series [1] was “* (extraction ratio (Eh)>90%)”. Further, the IC50 in series [2] was more than 0.3 µM. In series [3], this compound had an EC50 of less than 0.1 µM.
In the same order, the values of `C[C@H](NC(=O)c1ccno1)[C@H](Oc1ccc(C(=O)N[C@H]2CCCN(C(=O)[C@H]3COC(=O)C3)C2)nc1)c1ccc(C2CC2)cc1` [Compound 12, N-[(1S,2R)-2-(4-cyclopropylphenyl)-1-methyl-2-[[6-[[(3S)-1-[(3R)-5-oxotetrahydrofuran-3-carbonyl]-3-piperidyl]carbamoyl]-3-pyridyl]oxy]ethyl]isoxazole-5-carboxamide] are “* (extraction ratio (Eh)>90%)”, less than 0.1 µM and less than 0.1 µM.
In the same order, the values of `CC[C@@H](O)C(=O)N[C@@H](C)[C@H](Oc1ccc(C(=O)N[C@H]2CCCN(C(=O)[C@H]3COC(=O)C3)C2)nc1)c1ccc(C2CC2)cc1` [Compound 13, 5-[(1R,2S)-1-(4-cyclopropylphenyl)-2-[[(2R)-2-hydroxybutanoyl]amino]propoxy]-N-[(3S)-1-[(3R)-5-oxotetrahydrofuran-3-carbonyl]-3-piperidyl]pyridine-2-carboxamide] are “* (extraction ratio (Eh)>90%)”, 0.1 to 0.3 µM and less than 0.1 µM.
In the same order, the values of `COCC(=O)N[C@@H](C)[C@H](Oc1ccc(C(=O)N[C@H]2CCCN(C(=O)[C@H]3COC(=O)C3)C2)nc1)c1ccc(C2CC2)cc1` [Compound 14, 5-[(1R,2S)-1-(4-cyclopropylphenyl)-2-[(2-methoxyacetyl)amino]propoxy]-N-[(3S)-1-[(3R)-5-oxotetrahydrofuran-3-carbonyl]-3-piperidyl]pyridine-2-carboxamide] are “* (extraction ratio (Eh)>90%)”, 0.1 to 0.3 µM and less than 0.1 µM.
Turning to `C[C@H](NC(=O)C(C)(C)O)[C@H](Oc1ccc(C(=O)N[C@H]2CCCN(C(=O)[C@H]3COC(=O)C3)C2)nc1)c1ccc(C2CC2)cc1` [Compound 15, 5-[(1R,2S)-1-(4-cyclopropylphenyl)-2-[(2-hydroxy-2-methyl-propanoyl)amino]propoxy]-N-[(3S)-1-[(3R)-5-oxotetrahydrofuran-3-carbonyl]-3-piperidyl]pyridine-2-carboxamide], the “HLM assay Eh (%)” value in series [1] is listed as “** (50%<extraction ratio (Eh)<90%)”. In series [2], the IC50 is more than 0.3 µM. The compound further displayed a concentration giving a half-maximal response (EC50) in series [3] of less than 0.1 µM.
In the same order, the values of `C[C@H](NC(=O)CCO)[C@H](Oc1ccc(C(=O)N[C@H]2CCCN(C(=O)[C@H]3COC(=O)C3)C2)nc1)c1ccc(C2CC2)cc1` [Compound 16, 5-[(1R,2S)-1-(4-cyclopropylphenyl)-2-(3-hydroxypropanoylamino)propoxy]-N-[(3S)-1-[(3R)-5-oxotetrahydrofuran-3-carbonyl]-3-piperidyl]pyridine-2-carboxamide] are “* (extraction ratio (Eh)>90%)”, more than 0.3 µM and less than 0.1 µM.
In the same order, the values of `C[C@H](NC(=O)C1(O)CCC1)[C@H](Oc1ccc(C(=O)N[C@H]2CCCN(C(=O)[C@H]3COC(=O)C3)C2)nc1)c1ccc(C2CC2)cc1` [Compound 17, 5-[(1R,2S)-1-(4-cyclopropylphenyl)-2-[(1-hydroxycyclobutanecarbonyl)amino]propoxy]-N-[(3S)-1-[(3R)-5-oxotetrahydrofuran-3-carbonyl]-3-piperidyl]pyridine-2-carboxamide] are “* (extraction ratio (Eh)>90%)”, 0.1 to 0.3 µM and less than 0.1 µM.
In the same order, the values of `C[C@H](NC(=O)C1(O)CC1)[C@H](Oc1ccc(C(=O)N[C@H]2CCCN(C(=O)[C@H]3COC(=O)C3)C2)nc1)c1ccc(C2CC2)cc1` [Compound 18, 5-[(1R,2S)-1-(4-cyclopropylphenyl)-2-[(1-hydroxycyclopropanecarbonyl)amino]propoxy]-N-[(3S)-1-[(3R)-5-oxotetrahydrofuran-3-carbonyl]-3-piperidyl]pyridine-2-carboxamide] are “* (extraction ratio (Eh)>90%)”, 0.1 to 0.3 µM and less than 0.1 µM.
`C[C@H](NC(=O)c1cocn1)[C@H](Oc1ccc(C(=O)N[C@H]2CCCN(C(=O)[C@H]3COC(=O)C3)C2)nc1)c1ccc(C2CC2)cc1` [Compound 19, N-[(1S,2R)-2-(4-cyclopropylphenyl)-1-methyl-2-[[6-[[(3S)-1-[(3R)-5-oxotetrahydrofuran-3-carbonyl]-3-piperidyl]carbamoyl]-3-pyridyl]oxy]ethyl]oxazole-4-carboxamide]: in series [1], the “HLM assay Eh (%)” value was “* (extraction ratio (Eh)>90%)”. Further, in series [2], the IC50 is less than 0.1 µM. Further, the 50% effective concentration (EC50) in series [3] is less than 0.1 µM.
